Measurements published in patent US20250268903A1, “RXFP1 AGONISTS” (BRISTOL-MYERS SQUIBB COMPANY, priority 2021, published 2025).

Target: T1, human RXFP1 (Homo sapiens, UniProt Q9HBX9)
T1 construct: expressed in transfected cells
T1 sequence (Q9HBX9 1-757): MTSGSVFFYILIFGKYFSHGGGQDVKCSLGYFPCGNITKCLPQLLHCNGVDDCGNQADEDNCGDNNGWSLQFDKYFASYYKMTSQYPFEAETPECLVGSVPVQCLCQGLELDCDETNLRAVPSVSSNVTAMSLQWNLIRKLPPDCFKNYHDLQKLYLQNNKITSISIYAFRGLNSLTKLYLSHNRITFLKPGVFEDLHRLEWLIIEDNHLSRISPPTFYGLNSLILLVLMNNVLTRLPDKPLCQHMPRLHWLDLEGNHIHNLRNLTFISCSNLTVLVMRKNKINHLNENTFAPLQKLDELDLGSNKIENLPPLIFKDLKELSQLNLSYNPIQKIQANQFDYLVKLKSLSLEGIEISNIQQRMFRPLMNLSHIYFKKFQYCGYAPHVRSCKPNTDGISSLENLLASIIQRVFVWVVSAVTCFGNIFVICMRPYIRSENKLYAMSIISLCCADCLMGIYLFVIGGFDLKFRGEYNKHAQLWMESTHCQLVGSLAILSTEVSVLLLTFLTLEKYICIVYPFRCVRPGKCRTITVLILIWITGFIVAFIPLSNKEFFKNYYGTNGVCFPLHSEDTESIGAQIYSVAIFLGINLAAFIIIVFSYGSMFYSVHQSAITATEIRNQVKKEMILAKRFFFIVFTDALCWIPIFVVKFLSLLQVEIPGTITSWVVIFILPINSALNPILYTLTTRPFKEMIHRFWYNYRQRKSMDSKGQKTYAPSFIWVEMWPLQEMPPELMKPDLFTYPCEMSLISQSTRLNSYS
Assay: hRXFP1 HEK293 cAMP assay (HTRF)
Type: cell-based
Conditions: HEK293 cells stably expressing human RXFP1, 30 min at room temperature
Procedure, shortened: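 HEK293 cells stably expressing human RXFP1 were suspended in HBSS (Ca/Mg) with 20 mM HEPES, 0.05% BSA and 0.5 mM IBMX, then treated with compounds (0.010 nM–50 μM, 2% DMSO final) for 30 min at room temperature. Intracellular cAMP was measured by HTRF, and potency was derived from 4-parameter logistic fits.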

SMILES	EC50 [µM]
COc1ccc(C2CCC2)cc1C(=O)N[C@H]1[C@@H](C(=O)Nc2ccc(F)c(C(F)(F)F)c2)[C@H]2CC[C@@H]1/C2=C\C(F)(F)F [Example 176, (1R,2S,3R,4R,Z)-3-(5-cyclobutyl-2-methoxybenzamido)-N-(4-fluoro-3-(trifluoromethyl)phenyl)-7-(2,2,2-trifluoroethylidene) bicyclo[2.2.1]heptane-2-carboxamide]	0.738
COc1ccc(C2CCC(C(F)(F)F)CC2)cc1C(=O)NC1C2CCC(/C2=C/C(F)(F)F)[C@@H]1C(=O)Nc1ccc(F)c(C(F)(F)F)c1 (stereo partly drawn) [Example 177, (7Z)-N-[4-fluoro-3-(trifluoromethyl)phe-nyl]-3-{2-methoxy-5-[4-(trifluoromethyl)cyclo-hexyl]benzamido}-7-(2,2,2-trifluoroethylidene)bi-cyclo[2.2.1]heptane-2-carboxamide]	0.298
COc1ccc(CC2CCOCC2)cc1C(=O)NC1C2CCC(/C2=C/C(F)(F)F)[C@@H]1C(=O)Nc1ccc(F)c(C(F)(F)F)c1 (stereo partly drawn) [Example 178, (7Z)-N-[4-fluoro-3-(trifluoromethyl)phe-nyl]-3-{2-methoxy-5-[(oxan-4-yl)methyl]benzamido}-7-(2,2,2-trifluoroethylidene)bi-cyclo[2.2.1]heptane-2-carboxamide]	0.355
COc1ccc(CCc2ccc(F)cc2)cc1C(=O)NC1C2CCC(/C2=C/C(F)(F)F)[C@@H]1C(=O)Nc1ccc(F)c(C(F)(F)F)c1 (stereo partly drawn) [Example 179, (7Z)-N-[4-fluoro-3-(trifluoromethyl)phe-nyl]-3-{5-[2-(4-fluorophenyl)ethyl]-2-methoxybenzamido}-7-(2,2,2-trifluoroethylidene)bi-cyclo[2.2.1]heptane-2-carboxamide]	0.267
COc1ccc(CCC2CCOCC2)cc1C(=O)NC1C2CCC(/C2=C/C(F)(F)F)[C@@H]1C(=O)Nc1ccc(F)c(C(F)(F)F)c1 (stereo partly drawn) [Example 180, (7Z)-N-[4-fluoro-3-(trifluoromethyl)phe-nyl]-3-{2-methoxy-5-[2-(oxan-4-yl)ethyl]benzamido}-7-(2,2,2-trifluoroethylidene)bi-cyclo[2.2.1]heptane-2-carboxamide]	0.168
COc1ccc(CCCCCC#N)cc1C(=O)NC1C2CCC(/C2=C/C(F)(F)F)[C@@H]1C(=O)Nc1ccc(F)c(C(F)(F)F)c1 (stereo partly drawn) [Example 181, (7Z)-3-[5-(5-cyanopentyl)-2-methoxybenzamido]-N-[4-fluoro-3-(trifluoromethyl)phe-nyl]-7-(2,2,2-trifluoroethylidene)bi-cyclo[2.2.1]heptane-2-carboxamide]	0.103
COc1ccc(CCN2CCOC2=O)cc1C(=O)NC1C2CCC(/C2=C/C(F)(F)F)[C@@H]1C(=O)Nc1ccc(F)c(C(F)(F)F)c1 (stereo partly drawn) [Example 182, (7Z)-N-[4-fluoro-3-(trifluoromethyl)phe-nyl]-3-{2-methoxy-5-[2-(2-oxo-1,3-oxazolidin-3-yl)ethyl]benzamido}-7-(2,2,2-trifluoroethylidene)bi-cyclo[2.2.1]heptane-2-carboxamide]	0.139
COc1ccc(C[C@@H]2CCC(=O)N2)cc1C(=O)NC1C2CCC(/C2=C/C(F)(F)F)[C@@H]1C(=O)Nc1ccc(F)c(C(F)(F)F)c1 (stereo partly drawn) [Example 183, (7Z)-N-[4-fluoro-3-(trifluoromethyl)phe-nyl]-3-(2-methoxy-5-{[(2S)-5-oxopyrrolidin-2-yl]methyl}benzamido)-7-(2,2,2-trifluoroethylidene)bi-cyclo[2.2.1]heptane-2-carboxamide]	0.85
COc1ccc(CCCCCCC#N)cc1C(=O)NC1C2CCC(/C2=C/C(F)(F)F)[C@@H]1C(=O)Nc1ccc(F)c(C(F)(F)F)c1 (stereo partly drawn) [Example 184, (7Z)-3-[5-(6-cyanohexyl)-2-methoxybenzamido]-N-[4-fluoro-3-(trifluoromethyl)phe-nyl]-7-(2,2,2-trifluoroethylidene)bi-cyclo[2.2.1]heptane-2-carboxamide]	0.252
COc1ccc(CCC(F)(F)F)cc1C(=O)NC1C2CCC(/C2=C/C(F)(F)F)[C@@H]1C(=O)Nc1ccc(F)c(C(F)(F)F)c1 (stereo partly drawn) [Example 187, (7Z)-N-[4-fluoro-3-(trifluoromethyl)phe-nyl]-3-[2-methoxy-5-(3,3,3-trifluoropropyl)benz-amido]-7-(2,2,2-trifluoroethylidene)bi-cyclo[2.2.1]heptane-2-carboxamide]	0.385
COc1ccc(CCc2ccc(OC)c(C(=O)NC3C4CCC(/C4=C/C(F)(F)F)[C@@H]3C(=O)Nc3ccc(F)c(C(F)(F)F)c3)c2)cc1 (stereo partly drawn) [Example 188, (7Z)-N-[4-fluoro-3-(trifluoromethyl)phe-nyl]-3-{2-methoxy-5-[2-(4-methoxyphenyl)ethyl]benzamido}-7-(2,2,2-trifluoroethylidene)bi-cyclo[2.2.1]heptane-2-carboxamide]	0.056
COCCCc1ccc(OC)c(C(=O)NC2C3CCC(/C3=C/C(F)(F)F)[C@@H]2C(=O)Nc2ccc(F)c(C(F)(F)F)c2)c1 (stereo partly drawn) [Example 189, (2S,3R,7Z)-N-[4-fluoro-3-(trifluoromethyl)phe-nyl]-3-[2-methoxy-5-(3-methoxypropyl)benz-amido]-7-(2,2,2-trifluoroethylidene)bi-cyclo[2.2.1]heptane-2-carboxamide]	0.494
COc1ccc(CCN2CCOC2=O)cc1C(=O)NC1C2CCC(/C2=C/C2CCC2)[C@@H]1C(=O)Nc1ccc(F)c(C(F)(F)F)c1 (stereo partly drawn) [Example 191, (7Z)-7-(cyclobutylmethyl-idene)-N-[4-fluoro-3-(trifluoromethyl)phe-nyl]-3-{2-methoxy-5-[2-(2-oxo-1,3-oxazolidin-3-yl)ethyl]benzamido} bicyclo[2.2.1]heptane-2-carboxamide]	0.04
COc1ccc(CC2CCOCC2)cc1C(=O)NC1C2CCC(/C2=C/C2CCC2)[C@@H]1C(=O)Nc1ccc(F)c(C(F)(F)F)c1 (stereo partly drawn) [Example 194, (7Z)-7-(cyclobutylmethyli-dene)-N-[4-fluoro-3-(trifluoromethyl)phe-nyl]-3-{2-methoxy-5-[(oxan-4-yl)methyl]benzamido} bicyclo[2.2.1]hept-ane-2-carboxamide]	0.076

Now from value to compound:

EC50 [µM]	SMILES
0.603	COc1ccc(CCCC(F)(F)F)cc1C(=O)NC1C2CCC(/C2=C/C(F)(F)F)[C@@H]1C(=O)Nc1ccc(F)c(C(F)(F)F)c1 (stereo partly drawn) [Example 185, (7Z)-N-[4-fluoro-3-(trifluoromethyl)phe-nyl]-3-[2-methoxy-5-(4,4,4-trifluorobutyl)benza-mido]-7-(2,2,2-trifluoroethylidene)bi-cyclo[2.2.1]heptane-2-carboxamide]
0.28	COc1ccc(CCCCC(F)(F)F)cc1C(=O)NC1C2CCC(/C2=C/C(F)(F)F)[C@@H]1C(=O)Nc1ccc(F)c(C(F)(F)F)c1 (stereo partly drawn) [Example 186, (7Z)-N-[4-fluoro-3-(trifluoromethyl)phe-nyl]-3-[2-methoxy-5-(5,5,5-trifluoropentyl)benza-mido]-7-(2,2,2-trifluoroethylidene)bi-cyclo[2.2.1]heptane-2-carboxamide]
0.023	COc1ccc(CCCCCC#N)cc1C(=O)NC1C2CCC(/C2=C/C2CCC2)[C@@H]1C(=O)Nc1ccc(F)c(C(F)(F)F)c1 (stereo partly drawn) [Example 190, (7Z)-3-[5-(5-cyanopentyl)-2-methoxybenzamido]-7-(cyclobutylmethyli-dene)-N-[4-fluoro-3-(trifluoromethyl)phe-nyl]bicyclo[2.2.1]hept-ane-2-carboxamide]
0.033	COc1ccc(CCCCCCC#N)cc1C(=O)NC1C2CCC(/C2=C/C2CCC2)[C@@H]1C(=O)Nc1ccc(F)c(C(F)(F)F)c1 (stereo partly drawn) [Example 192, (7Z)-3-[5-(6-cyanohexyl)-2-methoxybenzamido]-7-(cyclobutylmethyl-idene)-N-[4-fluoro-3-(trifluoromethyl)phe-nyl]bicyclo[2.2.1] heptane-2-carboxamide]
0.055	COc1ccc(CCCCC(F)(F)F)cc1C(=O)NC1C2CCC(/C2=C/C2CCC2)[C@@H]1C(=O)Nc1ccc(F)c(C(F)(F)F)c1 (stereo partly drawn) [Example 193, (7Z)-7-(cyclobutylmethyli-dene)-N-[4-fluoro-3-(trifluoromethyl)phe-nyl]-3-[2-methoxy-5-(5,5,5-trifluoropentyl)benz-amido]bicyclo[2.2.1] heptane-2-carboxamide]
0.059	COc1ccc(CCCC(F)(F)F)cc1C(=O)NC1C2CCC(/C2=C/C2CCC2)[C@@H]1C(=O)Nc1ccc(F)c(C(F)(F)F)c1 (stereo partly drawn) [Example 195, (7Z)-7-(cyclobutylmethylidene)-N-[4-fluoro-3-(trifluoromethyl)phe-nyl]-3-[2-methoxy-5-(4,4,4-trifluorobutyl)benza-mido]bicyclo[2.2.1] heptane-2-carboxamide]
0.032	COc1ccc(CCCC(F)F)cc1C(=O)NC1C2CCC(/C2=C/C2CCC2)[C@@H]1C(=O)Nc1ccc(F)c(C(F)(F)F)c1 (stereo partly drawn) [Example 196, (7Z)-7-(cyclobutylmethyl-idene)-3-[5-(4,4-difluorobutyl)-2-methoxybenzamido]-N-[4-fluoro-3-(trifluoromethyl)phe-nyl]bicyclo[2.2.1] heptane-2-carboxamide]
